Measured values published in article PMC8537953 (Viruses, 2021).
Where two headings read alike, the source gives them in different places.

What was measured:
in vitro = conditions: human
influenza A = conditions: read-out: in vitro EC50 (influenza A); cited from earlier work
[1] = cited from earlier work
[2] = human, in vivo, cited from earlier work
SARS-CoV-2 [3] = conditions: read-out: EC50 against SARS-CoV-2; cited from earlier work
SARS-CoV-2 [4] = assay: microbe, parasite or virus in culture; format: cell-based; conditions: Severe acute respiratory syndrome coronavirus 2, Vero C1008, 6 h, read-out: % inhibition of SARS-CoV-2 infection, post-entry treatment

Structure (SMILES): NC12CC3CC(CC(C3)C1)C2 [Amantadine, amantadine]
- viability (in vitro): > 50%
- EC50 (influenza A): 16 µM
- PPB, plasma protein binding, % of compound bound to plasma proteins ([1]; plasma): 67%
- Cmax ([2]; 200 mg): 2700 nM

Structure (SMILES): CC12CC3CC(C)(C1)CC(N)(C3)C2 [Memantine, memantine]
- PPB, plasma protein binding, % of compound bound to plasma proteins ([1]; ref FDA reports): 45%

Structure (SMILES): CCC(CC)COC(=O)[C@H](C)N[P@](=O)(OC[C@H]1O[C@@](C#N)(c2ccc3c(N)ncnn23)[C@H](O)[C@@H]1O)Oc1ccccc1 [Remdesivir, remdesivir]
- EC50 (SARS-CoV-2 [3]): 2.5 µM

Structure (SMILES): CC(N)C12CC3CC(CC(C3)C1)C2 (centres unmarked) [Rimantadine, rimantadine]
- inhibition at 230 µM (SARS-CoV-2 [4]): > 99%
- Cmax [2]: 2200 nM
